Test results published in patent US7037693B2, “Muskmelon (Cucumis melo) hydroperoxide lyase and uses thereof” (Vanderbilt University, priority 2000, dated 2006).
Values joined by “and” are separate entries in the source; they are usually repeats but may differ in a detail not shown here. Equal entries are not always repeated. Blank lines part the entries; values can stand above or below the molecule they belong to.

Experiments:
[1] = target: melon 9-hydroperoxide lyase (9-HPL) (Cucumis melo, UniProt A0A1S3BZK9); assay: Kinetics of melon 9-HPL with fatty acid hydroperoxide substrates (spectrophotometric assay, decrease in absorbance at 235 nm); type: biochemical; conditions: relative to 9-hydroperoxylinolenic acid; 'preferably approximately' value
Experimental: The resulting pellet of cells was resuspended in Tris-acetate buffer (0.1 M, pH 7.6) containing sucrose (0.5 M), EDTA (0.5 mM) and lysozyme (1 mg/ml). After 30 min on ice, the mixture was centrifuged as before to obtain a pellet of spheroplastes. These were resuspended in potassium phosphate buffer (0.1 M, pH 7.6) containing magnesium acetate (6 mM), glycerol (20% v/v) and DTT (0.1 mM) and the mixture left for 10 min at −80° C. Following this, a protease inhibitor was added (PMSF, 1 mM) and the cells sonicated (2×30 seconds). […] Compared to the control protein produced from vector alone with no cDNA insert, there was less protein, but the bacterial lysates of each gave easily measurable catalytic activity. By monitoring the disappearance of the UV-235 nm absorbance of the fatty acid hydroperoxide substrates, less than 1 μl (<10 μg crude protein) of the suspended and lysed bacterial pellets were required in order to observe reaction in a 1 ml UV cuvette. Measurement was made using the spectrophotometric assay (decrease in absorbance at 235 nm) and the initial rates of reaction. The turnover number of the purified 9-HPL enzyme (number of product molecules formed per molecule of enzyme) using 9S-hydroperoxylinoleic acid as substrate was calculated from the known concentration of the enzyme (measured at the Soret maximum at 416 nm, and using a molar extinction coefficient of 100,000), and the measured rates of change of substrate concentration (using the molar extinction coefficient of 23,000 at 235 nm of the conjugated diene).

[2] = substrate: CC/C=C\C[C@@H](/C=C/C=C\CCCCCCCC(=O)O)OO; assay: as above; type: biochemical, Cucumis melo; conditions: 95% confidence limits given; pH 7.6
Experimental: (§1) The resulting pellet of cells was resuspended in Tris-acetate buffer (0.1 M, pH 7.6) containing sucrose (0.5 M), EDTA (0.5 mM) and lysozyme (1 mg/ml). After 30 min on ice, the mixture was centrifuged as before to obtain a pellet of spheroplastes. These were resuspended in potassium phosphate buffer (0.1 M, pH 7.6) containing magnesium acetate (6 mM), glycerol (20% v/v) and DTT (0.1 mM) and the mixture left for 10 min at −80° C. Following this, a protease inhibitor was added (PMSF, 1 mM) and the cells sonicated (2×30 seconds). […] By monitoring the disappearance of the UV-235 nm absorbance of the fatty acid hydroperoxide substrates, less than 1 μl (<10 μg crude protein) of the suspended and lysed bacterial pellets were required in order to observe reaction in a 1 ml UV cuvette. Measurement was made using the spectrophotometric assay (decrease in absorbance at 235 nm) and the initial rates of reaction. The turnover number of the purified 9-HPL enzyme (number of product molecules formed per molecule of enzyme) using 9S-hydroperoxylinoleic acid as substrate was calculated from the known concentration of the enzyme (measured at the Soret maximum at 416 nm, and using a molar extinction coefficient of 100,000), and the measured rates of change of substrate concentration (using the molar extinction coefficient of 23,000 at 235 nm of the conjugated diene).

[3] = substrate: CCCCC/C=C\C=C\[C@H](CCCCCCCC(=O)O)OO; assay: as above; type: biochemical, Cucumis melo; conditions: 95% confidence limits given; pH 7.6
Experimental: as §1

[4] = pH dependence of the activity of the lyase; type: biochemical, Cucumis melo

Vmax as percentage of the Vmax of the lyase for 9-hydroperoxylinolenic acid [1]: approximately 22%
Molecule: CC/C=C\C[C@@H](/C=C/C=C\CCCCCCCC(=O)O)OO [13-hydroperoxylinolenic acid, (9Z, 11E, 13S, 15Z) 13-hydroperoxyoctadeca-9,11,15-trienoic acid]

activity as percentage of maximal activity ([4]; pH 5.0): approximately 25%
activity as percentage of maximal activity ([4]; pH 9.0): approximately 15%
B2: lyase: fatty acid 9-hydroperoxide lyase of muskmelon (Cucumis melo), SEQ ID NO:7, recombinantly expressed in E. coli (protein)
chain: MATPSSSSPELPLKPIPGGYGFPFLGPIKDRYDYFYFQGRDEFFRSRITKYNSTVFRANMPPGPFISSDSRVVVLLDALSFPILFDTAKVEKRNILDGTYMPSLSFTGNIRTCAYLDPSETEHSVLKRLFLSFLASRHDRFIPLFRSSLSEMFVKLEDKLSEKKKIADFNSISDSMSFDYVFRLLSDGTPDSKLAAEGPGMFDLWLVFQLAPLASIGLPKIFSVFEDLVIHTIPLPFFPVKSGYRKLYEAFYSSSGSFLDEAEKQGIDREKACHNLVFLAGFNAYGGMKVLFPTLLKWVGTAGEDLHRKLAEEVRTTVKEEGGLTFSALEKMSLLKSVVYEALRIEPPVPFQYGKAKEDIVIQSHDSSFKIKKGETIFGYQPFATKDPKIFKDSEKFVGDRFVGEEGEKLLKYVYWSNERETVEPTAENKQCPGKNLVVLIGRIMVVEFFLRYDTFTVEVADLPLGPAVKFKSLTRATDMV
modifications: Cucumis melo

Second part, the molecule before the results:

Molecule: CCCCC[C@@H](/C=C/C=C\CCCCCCCC(=O)O)OO [13-hydroperoxylinoleic acid, (9Z,11E,13S)13-hydroperoxyoctadeca-9,11-dienoic acid]
Vmax as percentage of the Vmax of the lyase for 9-hydroperoxylinolenic acid [1]: approximately 30%

Molecule: CCCCC/C=C\C=C\[C@H](CCCCCCCC(=O)O)OO [9-hydroperoxylinoleic acid, (9S, 10E, 12Z) 9-hydroperoxyoctadeca-10,12-dienoic acid]
Km as percentage of the Km of the lyase for 9-hydroperoxylinolenic acid [1]: approximately 54%
Vmax as percentage of the Vmax of the lyase for 9-hydroperoxylinolenic acid [1]: approximately 55%

B1: melon 9-hydroperoxide lyase (9-HPL) (Cucumis melo) (protein)
chain: MATPSSSSPELPLKPIPGGYGFPFLGPIKDRYDYFYFQGRDEFFRSRITKYNSTVFRANMPPGPFISSDSRVVVLLDALSFPILFDTAKVEKRNILDGTYMPSLSFTGNIRTCAYLDPSETEHSVLKRLFLSFLASRHDRFIPLFRSSLSEMFVKLEDKLSEKKKIADFNSISDSMSFDYVFRLLSDGTPDSKLAAEGPGMFDLWLVFQLAPLASIGLPKIFSVFEDLVIHTIPLPFFPVKSGYRKLYEAFYSSSGSFLDEAEKQGIDREKACHNLVFLAGFNAYGGMKVLFPTLLKWVGTAGEDLHRKLAEEVRTTVKEEGGLTFSALEKMSLLKSVVYEALRIEPPVPFQYGKAKEDIVIQSHDSSFKIKKGETIFGYQPFATKDPKIFKDSEKFVGDRFVGEEGEKLLKYVYWSNERETVEPTAENKQCPGKNLVVLIGRIMVVEFFLRYDTFTVEVADLPLGPAVKFKSLTRATDMV
Km [2]: 50 µM and 51 µM
Km [3]: 192 µM
